“And” between values parts separate entries of the source, which are not always exact repeats. Equal values may be shown once. Where a name gives a salt, the structure may show the parent alone. Read-outs that look alike come from different tables or passages of the source.
What was measured:
[1] = test system: SARS-CoV-2 Wuhan-Hu-1, Caco-2 cells; format: cell-based
TMPRSS2 = TMPRSS2 (Homo sapiens, UniProt O15393); format: biochemical; design: purchased Creative BioMart (New York, USA) or LSBio (Seattle, USA); details: normalized, 0 nM = 100
Text: Recombinant human TMPRSS2 was purchased from Creative BioMart (New York, USA) or LSBio (Seattle, USA), factor Xa was obtained from Bio-Techne GmbH (Wiesbaden, Germany). Recombinant human thrombin and matriptase protein were purchased from R&D Systems (Minneapolis, MN, USA).

[2] = test system: lentiviral pseudoparticles carrying SARS-CoV-2 Wuhan-Hu-1 spike, Caco-2 cells; format: cell-based
[3] = biological target: cellular TMPRSS2 activity, Caco-2 cells (Homo sapiens, UniProt O15393); details: normalized, 0 nM = 100
Description: (§1) In total, 10,000 Caco-2 cells (ATCC) in 100 µL EMEM medium supplemented with 10% FBS, 100 U/mL penicillin, […] streptomycin, and 2 mM glutamine (all Invitrogen, Germany) were seeded per well in a 96-well plate and incubated at 37 °C for 4 days until full confluency of the cells. The cells were washed two times with PBS and EMEM medium without FBS was added. […] The fluorescence intensity was measured as described above. In all, 20,000 HEK293T cells (ATCC) were seeded in 100 µL DMEM supplemented with 10% FBS, 100 U/mL penicillin, […] streptomycin, and 2 mM glutamine. […] After 14 h, transfection mix was removed from the cells and 80 µL fresh medium without FBS and 10 µL inhibitors were added (final concentration 50 µM). […] Fluorescence intensity was measured after 2 h at 37 °C as described above.

[4] = biological target: T1, TMPRSS2 expressed in HEK293T cells (Homo sapiens, UniProt O15393); assay: Inhibition of cellular TMPRSS2 activity on HEK293T cells transiently expressing TMPRSS2; format: cell-based; details: 2 h, corrected for mock-transfected cells
T1 construct: host or cells: HEK293T (ATCC)
Description: as §1, with “After 14 h, transfection mix was removed from the cells and 80 µL fresh medium without FBS and 10 µL inhibitors were added (final concentration 50 µM).” left out

[5] = biological target: T2, recombinant human matriptase (Homo sapiens, UniProt Q9Y5Y6); assay: Enzyme inhibition assay with purified matriptase (Ki, dose-response); format: biochemical; details: for matriptase activity, Mean (Fig. 2b): normalized, 0 nM = 100
T2 construct: purchased R&D Systems (Minneapolis, MN, USA)
T2 sequence (Q9Y5Y6 1-855): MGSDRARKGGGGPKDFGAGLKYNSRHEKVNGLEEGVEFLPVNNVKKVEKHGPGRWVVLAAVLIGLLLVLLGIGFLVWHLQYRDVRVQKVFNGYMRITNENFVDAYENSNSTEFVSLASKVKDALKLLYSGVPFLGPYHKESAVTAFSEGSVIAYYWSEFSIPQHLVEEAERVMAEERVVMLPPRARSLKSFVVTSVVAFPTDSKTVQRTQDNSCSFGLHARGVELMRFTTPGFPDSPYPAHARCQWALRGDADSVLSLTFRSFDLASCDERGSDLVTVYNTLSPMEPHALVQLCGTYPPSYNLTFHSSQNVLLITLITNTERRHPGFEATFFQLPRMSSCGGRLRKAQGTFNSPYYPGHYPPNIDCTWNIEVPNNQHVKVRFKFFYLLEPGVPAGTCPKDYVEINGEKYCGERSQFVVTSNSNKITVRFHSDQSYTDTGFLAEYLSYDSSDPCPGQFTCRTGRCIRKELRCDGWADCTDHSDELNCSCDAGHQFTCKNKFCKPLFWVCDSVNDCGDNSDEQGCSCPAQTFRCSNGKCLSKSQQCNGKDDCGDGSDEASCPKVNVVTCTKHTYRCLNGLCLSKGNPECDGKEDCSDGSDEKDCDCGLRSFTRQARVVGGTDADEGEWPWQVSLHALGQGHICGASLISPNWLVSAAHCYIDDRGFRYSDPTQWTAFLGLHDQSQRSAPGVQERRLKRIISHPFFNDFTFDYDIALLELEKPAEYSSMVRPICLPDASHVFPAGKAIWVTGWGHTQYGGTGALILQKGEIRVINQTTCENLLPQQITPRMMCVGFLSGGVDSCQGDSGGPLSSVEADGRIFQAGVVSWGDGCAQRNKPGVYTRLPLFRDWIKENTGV

[6] = test system: lentiviral pseudoparticles carrying SARS-CoV-2 Delta (B.1.617.2) spike, Caco-2 cells; format: cell-based; details: for SARS-CoV-2 spike driven entry, Mean (0 nM = 100): Fig. 5d

Chain of cellular TMPRSS2 activity, Caco-2 cells (O15393 whole entry): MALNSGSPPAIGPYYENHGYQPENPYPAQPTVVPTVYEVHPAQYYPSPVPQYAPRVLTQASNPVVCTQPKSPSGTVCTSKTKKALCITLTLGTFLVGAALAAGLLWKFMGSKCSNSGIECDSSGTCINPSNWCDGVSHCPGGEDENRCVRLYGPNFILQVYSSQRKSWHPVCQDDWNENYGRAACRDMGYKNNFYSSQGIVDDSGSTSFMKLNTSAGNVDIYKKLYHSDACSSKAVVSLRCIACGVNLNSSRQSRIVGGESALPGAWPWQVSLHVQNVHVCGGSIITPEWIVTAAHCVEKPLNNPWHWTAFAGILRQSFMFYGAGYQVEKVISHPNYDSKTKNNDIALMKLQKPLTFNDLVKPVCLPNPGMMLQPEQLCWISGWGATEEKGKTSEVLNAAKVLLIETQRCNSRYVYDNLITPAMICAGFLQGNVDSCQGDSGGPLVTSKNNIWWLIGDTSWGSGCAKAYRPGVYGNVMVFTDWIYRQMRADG
Chain of TMPRSS2 (O15393 whole entry): as above
T1 sequence (O15393 whole entry): as above

`CN(C)C(=O)COC(=O)Cc1ccc(OC(=O)c2ccc(NC(=N)N)cc2)cc1` [CM, camostat mesylate, reference compound] was tested, and the IC50 ([1]; read-out: IC50 SARS-CoV-2 Wuhan-Hu-1) was 3620 nM, the IC50 ([1]; read-out: IC50 SARS-CoV-2 Wuhan-Hu-1 (text)) was 3600 nM and the “TMPRSS2 activity, Mean (Fig. 2a)” value (TMPRSS2; 0.05 nM) was 101.705. The “TMPRSS2 activity, Mean (Fig. 2a)” value (TMPRSS2; 0.5 nM) was 66.4773, the “TMPRSS2 activity, Mean (Fig. 2a)” value (TMPRSS2; 5 nM) was 16.1932 and the “TMPRSS2 activity, Mean (Fig. 2a)” value (TMPRSS2; 50 nM) was 0.2841. The “TMPRSS2 activity, Mean (Fig. 2a)” value (TMPRSS2; 500 nM) was 0.5682, the “TMPRSS2 activity, Mean (Fig. 2a)” value (TMPRSS2; 5000 nM) was -0.142 and the “TMPRSS2 activity, Mean (Fig. 2a)” value (TMPRSS2; 50000 nM) was 0.2841. For the same compound, the “TMPRSS2 activity, Mean (Fig. 2a)” value (TMPRSS2; 500000 nM) was -0.4261, the “SARS-CoV-2 spike driven entry, Mean (0 nM = 100)” value (“SARS-CoV-2 spike driven entry” below) [2] was 90.0332 and the IC50 ([2]; Caco-2 cells, luciferase 2 days post transduction, read-out: IC50 pseudotyped lentivirus Wuhan-Hu-1) was 748 nM and ~748 nM. For the same compound, the “SARS-CoV-2 spike driven entry” value ([2]; Fig. 5a, compound 160 nM, […]) was 75.4652, the “SARS-CoV-2 spike driven entry” value ([2]; Fig. 5a, compound 800 nM, […]) was 52.9188 and the “SARS-CoV-2 spike driven entry” value ([2]; Fig. 5a, compound 4000 nM, […]) was 17.6822. The “SARS-CoV-2 spike driven entry” value ([2]; Fig. 5a, compound 20000 nM, […]) was 3.857, the “SARS-CoV-2 spike driven entry” value ([2]; Fig. 5a, compound 100000 nM, […]) was 2.478 and the “cellular protease activity on Caco-2 cells, Mean (Fig. 4a)” value (shortened to “cellular protease activity”) ([3]; 0.1 nM) was 103.704. For the same compound, the “cellular protease activity” value ([3]; 1 nM) was 98.7654, the “cellular protease activity” value ([3]; 10 nM) was 63.4921 and the “cellular protease activity” value ([3]; 100 nM) was 38.9771. The “cellular protease activity” value ([3]; 1000 nM) was 21.8695, the “cellular protease activity” value ([3]; 10000 nM) was 6.173 and the “cellular protease activity” value ([3]; 100000 nM) was 1.764. For the same compound, the “normalized fluorescence intensity, HEK293T TMPRSS2, Mean (Fig. 4b)” value (“normalized fluorescence intensity” below) ([4]; 0.5 nM) was 47.42, the “normalized fluorescence intensity” value ([4]; 5 nM) was 43.185 and the “normalized fluorescence intensity” value ([4]; 50 nM) was 9.45. For the same compound, the “normalized fluorescence intensity” value ([4]; 500 nM) was 8.435, the “normalized fluorescence intensity” value ([4]; 5000 nM) was 0.32 and the “normalized fluorescence intensity” value ([4]; 50000 nM) was -3.52. For the same compound, the “matriptase activity, Mean (Fig. 2b)” value ([5]; 0.05 nM) was 100.491, the “matriptase activity, Mean (Fig. 2b)” value ([5]; 0.1 nM) was 98.1997 and the “matriptase activity, Mean (Fig. 2b)” value ([5]; 0.2 nM) was 86.1702. For the same compound, the “matriptase activity, Mean (Fig. 2b)” value ([5]; 1 nM) was 58.838, the “matriptase activity, Mean (Fig. 2b)” value ([5]; 10 nM) was 4.828 and the “matriptase activity, Mean (Fig. 2b)” value ([5]; 1000 nM) was 0.2455. The “matriptase activity, Mean (Fig. 2b)” value ([5]; 50000 nM) was 0.08183, the “matriptase activity, Mean (Fig. 2b)” value ([5]; 500000 nM) was 0.1637 and the Ki ([5]; 30 min preincubation, substrate Boc-Gln-Ala-Arg-AMC) was 0.6 nM. For the same compound, the IC50 ([6]; Caco-2 cells, luciferase 2 days post transduction, read-out: IC50 pseudotyped lentivirus Delta) was 85.5 nM, the “SARS-CoV-2 spike driven entry” value ([6]; compound 3.2 nM) was 83.3031 and the “SARS-CoV-2 spike driven entry” value ([6]; compound 16 nM) was 73.1168. For the same compound, the “SARS-CoV-2 spike driven entry” value ([6]; compound 80 nM) was 52.0145, the “SARS-CoV-2 spike driven entry” value ([6]; compound 400 nM) was 29.5018 and the “SARS-CoV-2 spike driven entry” value ([6]; compound 2000 nM) was 11.0315. The “SARS-CoV-2 spike driven entry” value ([6]; compound 10000 nM) was 3.058 and the “SARS-CoV-2 spike driven entry” value ([6]; compound 50000 nM) was 0.6818.
